# According to patent US12691116B2, “SETBP1 and XPO1 inhibitors for the treatment of sickle cell disease and β-thalassemia” (The Henry M. Jackson Foundation for the Advancement of …, priority 2019, dated 2026):
# Legend:
# MEL cells [1] = test: Real-time RT-PCR of hemoglobin mRNA in MEL cells 48 hours after removal of compound (24 hours treatment); assay type: cell-based, mouse; details: treated 24 hours, examined 48 hours after removal
# Protocol: Real-time RT-PCR analysis of Hbb-bh1, Hbb-y, and Hbb-b1 mRNA levels in MEL cells 48 hours after removal of Compound (1AA) or KPT-185 from culture. The cells were first treated with Compound (1AA) or KPT-185 for 24 hours. Relative expression levels were calculated by normalizing to Rpl4 mRNA levels in the same sample and also to cells treated with DMSO.
# A further experiment examined whether continuous treatment of Compound (1AA) and KPT-185 as exemplary SETBP1 and XPO1 inhibitors, respectively, was required for activation of Hbb-bh1 and Hbb-y expression. MEL cells were treated with Compound (1AA) and KPT-185 for 24 hours and the Hbb-bh1 and Hbb-y mRNA levels were then examined at 48 hours after their removal.
# MEL cells [2] = test: Real-time RT-PCR of Hbb-bh1, Hbb-y and Hbb-b1 mRNA in MEL cells after 48 hours of treatment; assay type: cell-based, mouse; details: for increase in Hbb-bh1 (embryonic hemoglobin) mRNA level / increase in Hbb-y (fetal hemoglobin) mRNA level: 0.1 μM, 48 hours, relative to vehicle, normalized to Rpl4; for effect on Hbb-bh1 mRNA level (in words) / effect on Hbb-y mRNA level (in words): 48 hours of treatment at indicated concentration
# Protocol: Real-time RT-PCR analysis of Hbb-bh1, Hbb-y, and Hbb-b1 mRNA levels in MEL cells after 48 hours of treatment with compound 1AA at indicated concentration or with control DMSO. Relative expression levels were calculated by normalizing to Rpl4 mRNA levels in the same sample and also to cells […] with DMSO. […]
# Relative expression levels were calculated by normalizing to Rpl4 mRNA levels in the same sample and also to cells treated with DMSO.
# (§1) For studies using MEL cells, the cells were treated with selected inhibitors or vehicle in a culture medium (RPM 11640 medium with 10% fetal bovine serum) for 48 hours and were subsequently harvested for analysis of relative mRNA levels of Hbb-bh1, Hbb-y, and Hbb-b1 using real-time RT-PCR. For studies using primary human CD34+ hematopoietic stem and progenitor cells, the cells were treated with inhibitors or vehicle following or concurrent with induction of erythroid differentiation using an established two-phase culture protocol (Xu et al., Genes & Development 24(8): 783-798 (2010)). Relative mRNA levels of β-like globin genes in human cells after treatment were also analyzed using real-time RT-PCR.
# SETBP1 = SETBP1 (Homo sapiens, UniProt Q9Y6X0); details: cited from earlier work
# SETBP1, sequence (Q9Y6X0 whole entry): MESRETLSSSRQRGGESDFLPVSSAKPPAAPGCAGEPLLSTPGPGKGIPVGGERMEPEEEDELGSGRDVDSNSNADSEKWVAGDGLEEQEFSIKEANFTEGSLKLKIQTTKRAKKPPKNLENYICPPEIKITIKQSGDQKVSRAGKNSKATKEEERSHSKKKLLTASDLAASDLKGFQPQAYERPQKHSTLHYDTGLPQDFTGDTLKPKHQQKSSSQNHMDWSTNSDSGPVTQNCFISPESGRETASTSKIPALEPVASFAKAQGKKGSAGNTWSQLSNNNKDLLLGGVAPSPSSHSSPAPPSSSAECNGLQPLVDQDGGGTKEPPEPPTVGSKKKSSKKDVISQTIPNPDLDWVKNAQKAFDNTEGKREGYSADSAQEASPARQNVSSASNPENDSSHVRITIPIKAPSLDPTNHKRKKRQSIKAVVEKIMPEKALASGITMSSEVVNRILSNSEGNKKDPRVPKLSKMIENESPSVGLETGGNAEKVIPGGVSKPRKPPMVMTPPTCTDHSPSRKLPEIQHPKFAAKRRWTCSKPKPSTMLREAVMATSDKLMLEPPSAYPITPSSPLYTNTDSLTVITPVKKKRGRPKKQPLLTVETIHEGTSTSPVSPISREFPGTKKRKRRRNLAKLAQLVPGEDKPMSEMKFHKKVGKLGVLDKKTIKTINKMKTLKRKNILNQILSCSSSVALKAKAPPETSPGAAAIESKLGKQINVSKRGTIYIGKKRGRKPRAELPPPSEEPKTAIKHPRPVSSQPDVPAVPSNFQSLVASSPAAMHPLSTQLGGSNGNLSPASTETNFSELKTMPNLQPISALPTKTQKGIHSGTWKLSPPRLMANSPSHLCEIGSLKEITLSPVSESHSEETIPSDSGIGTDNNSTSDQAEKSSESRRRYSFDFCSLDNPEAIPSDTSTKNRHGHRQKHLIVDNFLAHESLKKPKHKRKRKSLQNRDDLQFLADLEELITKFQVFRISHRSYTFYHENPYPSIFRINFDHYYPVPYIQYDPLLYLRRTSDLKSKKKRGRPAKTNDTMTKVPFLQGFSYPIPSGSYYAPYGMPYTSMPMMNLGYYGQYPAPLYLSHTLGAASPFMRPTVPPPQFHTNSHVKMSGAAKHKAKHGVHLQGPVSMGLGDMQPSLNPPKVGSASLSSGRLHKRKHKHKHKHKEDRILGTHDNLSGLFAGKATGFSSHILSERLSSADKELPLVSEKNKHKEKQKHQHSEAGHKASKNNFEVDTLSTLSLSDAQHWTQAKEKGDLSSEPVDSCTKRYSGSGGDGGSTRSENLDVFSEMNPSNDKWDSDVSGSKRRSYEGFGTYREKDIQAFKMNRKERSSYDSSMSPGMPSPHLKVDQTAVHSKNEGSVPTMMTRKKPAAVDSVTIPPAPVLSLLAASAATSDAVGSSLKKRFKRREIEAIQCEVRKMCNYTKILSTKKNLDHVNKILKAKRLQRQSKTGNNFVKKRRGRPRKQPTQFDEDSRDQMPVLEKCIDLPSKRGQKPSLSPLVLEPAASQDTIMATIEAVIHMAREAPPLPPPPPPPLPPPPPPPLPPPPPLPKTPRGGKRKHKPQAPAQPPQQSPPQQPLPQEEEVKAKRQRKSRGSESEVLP
# human erythroid cells = test: Erythroid differentiation of human mobilized CD34+ cells, real-time RT-PCR of globin mRNA; assay type: cell-based; details: human erythroid cells from CD34+ cells, treatment from day 5 of expansion, harvested day 10 of differentiation
# Text: Human CD34^+ cells mobilized by granulocyte-colony stimulating factor (G-CSF) were induced to undergo erythroid differentiation in culture. Treatment with Compound 1AA and 1BB at indicated concentrations or vehicles (DMSO or water) were started at day 5 of expansion condition. Erythroid cells were harvested at day 10 of differentiation condition for real-time RT-PCR analysis of human embryonic […] (FIG. 8A), fetal γ (FIG. 8B), and adult β (FIG. 8C) hemoglobin mRNA levels. Relative expression levels were calculated by normalizing to RPL4 mRNA levels in the same sample and also to cells treated with DMSO. (FIG. 8D) Representative bar graphs showing mRNA levels of human embryonic and fetal hemoglobin (γ+ε) as a percentage of total β-like globin (β+γ+ε) mRNA levels after treatment with Compound 1AA and 1BB versus DMSO. Note that a level of 20% or above for embryonic and fetal hemoglobin is considered curative for sickle cell disease. **, P<0.01; ***, P<0.001; ****P<0.0001 (two-tailed Student's t test).
# as §1
# Primary human mobilized CD34^+ cells were initially cultured in expansion medium containing StemSpan SFEM Medium (StemCell Technologies Inc.) with 1×CC100 cytokine mix (StemCell Technologies Inc.) and 2% Penicillin-Streptomycin (Life Technologies Inc.). Cells were maintained in this expansion medium at a density of 0.1-1×10^6 cells/mL for a total of six days with media changes every two days. On day 6, cells were transferred into differentiation medium containing StemSpan SFEM Medium with 2% Penicillin-Streptomycin, 20 ng/ml SCF (Biolegend), 1 U/ml EPO (Amgen), 5 ng/ml IL-3 (Biolegend), 2 μM dexamethasone (Sigma), and 1 μM β-estradiol (Sigma). Cells were maintained at a density of 0.1-1×10^6 cells/mL in differentiation medium for 10 days with media changes every two days. Drug treatments were started at day 5 of expansion condition and maintained thereafter. Fresh drugs were added at each medium change.
# [3] = tested on: SETBP1 interaction with XPO1; details: cited from earlier work
SMILES,Hbb-bh1 mRNA level after removal of compound (MEL cells [1]),Hbb-y mRNA level after removal of compound (MEL cells [1]),increase in Hbb-bh1 (embryonic hemoglobin) mRNA level (MEL cells [2]),increase in Hbb-y (fetal hemoglobin) mRNA level (MEL cells [2]),Hbb-bh1 mRNA level compared to cells treated with hydroxyurea (MEL cells [2]; 48 hours of treatment) [fold],inhibition of SETBP1 (transcriptional activity) (SETBP1),effect on adult hemoglobin Hbb-b1 mRNA level (MEL cells [2]; 48 hours of treatment),effect on Hbb-bh1 mRNA level (in words) (MEL cells [2]),effect on Hbb-y mRNA level (in words) (MEL cells [2]),human embryonic hemoglobin mRNA level (human erythroid cells),human fetal γ hemoglobin mRNA level (human erythroid cells),blocking of SETBP1 interaction with cofactor XPO1 [3]
"COc1cc(-c2ncn(/C=C\C(=O)OC(C)C)n2)cc(C(F)(F)F)c1 [KPT-185, reference compound]",Significantly elevated levels,Significantly elevated levels,over 60 fold,over 14 fold,~30,–,–,–,–,–,–,–
CCN(CC)CC[n+]1ccc2c(C)c3[nH]c4ccc(O)cc4c3c(C)c2c1.[Cl-] [Compound (1BB)],–,–,–,–,–,inhibitor,minor effects,significantly increase,significantly increase,significantly increased,significantly increased,–
Cc1c2cc[n+](CCN3CCCCC3)cc2c(C)c2c1[nH]c1ccc(O)cc12.[Br-] [Compound (1AA)],Significantly elevated levels,Significantly elevated levels,> 8 fold,> 8 fold,–,inhibitor,only minor changes,–,–,significantly increased,significantly increased,blocking
"O=C(/C=C\n1cnc(-c2cc(C(F)(F)F)cc(C(F)(F)F)c2)n1)NNc1cnccn1 [KPT-330, reference compound]",–,–,–,–,–,–,–,–,significantly increase,–,–,–
"NC(=O)/C(=C/n1cnc(-c2cc(C(F)(F)F)cc(C(F)(F)F)c2)n1)c1cncnc1 [KPT-8602, reference compound]",–,–,–,–,–,–,–,significantly increase,significantly increase,–,–,–
